Our source for the T/C values is PubChem BioAssay AID256 (DTP/NCI, 2004).

The subject of this assay is CD2F1 mice, L1210 leukemia ip, survival T/C. Nature of the assay: NCI In Vivo Anticancer Drug Screen. Data for tumor model L1210 Leukemia (intraperitoneal) in CD2F1 (CDF1) mice. The settings on record: endpoint: mean survival time, higher = longer survival. In short, it runs like this: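 Compound-dosed mice with transplantable tumor versus matched vehicle controls; endpoint ratio T/C reported.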

Where [1] appears, read: dose: 100.0 mg/kg/injection, schedule: Q01DX009 (ip), vehicle: saline with Tween-80.
The mark [2] stands for this setting: dose: 200.0 mg/kg/injection, schedule: Q01DX009 (ip), vehicle: saline with Tween-80.
The mark [3] stands for this setting: dose: 100.0 mg/kg/injection, schedule: Q04DX002 (ip), vehicle: saline with Tween-80.
Where [4] appears, read: dose: 200.0 mg/kg/injection, schedule: Q04DX002 (ip), vehicle: saline with Tween-80.
Setting [5] is: dose: 400.0 mg/kg/injection, schedule: Q04DX002 (ip), vehicle: saline with Tween-80.
Where [6] appears, read: dose: 100.0 mg/kg/injection, schedule: Q04DX003 (ip), vehicle: saline with Tween-80.
The mark [7] stands for this setting: dose: 200.0 mg/kg/injection, schedule: Q04DX003 (ip), vehicle: saline with Tween-80.
[8] abbreviates: dose: 400.0 mg/kg/injection, schedule: Q04DX003 (ip), vehicle: saline with Tween-80.
[9] abbreviates: dose: 100.0 mg/kg/injection, schedule: Q01DX009 (ip), vehicle: saline.
Where [10] appears, read: dose: 200.0 mg/kg/injection, schedule: Q01DX009 (ip), vehicle: saline.
The mark [11] stands for this setting: dose: 100.0 mg/kg/injection, schedule: Q04DX003 (ip), vehicle: saline.
The mark [12] stands for this setting: dose: 12.5 mg/kg/injection, schedule: Q04DX003 (ip), vehicle: saline.
Setting [13] is: dose: 25.0 mg/kg/injection, schedule: Q04DX003 (ip), vehicle: saline.

Where “and” joins values, the source holds several entries; their conditions need not be identical. Identical values can stand only once. Toxic doses and inconclusive results are not listed.

In the case of `O=C(OCC1OC(n2nc(SCc3ccccc3)c(=S)[nH]c2=O)C(OC(=O)c2ccccc2)C1OC(=O)c1ccccc1)c1ccccc1` (stereo not drawn), the T/C was 101 % of control (dose: 12.5 mg/kg/injection, schedule: Q01DX005 (ip), vehicle: distilled water + Tween-80); 95 % of control (dose: 25.0 mg/kg/injection, schedule: Q01DX005 (ip), vehicle: distilled water + Tween-80); 102 % of control (dose: 50.0 mg/kg/injection, schedule: Q01DX005 (ip), vehicle: distilled water + Tween-80); 93 % of control (dose: 100.0 mg/kg/injection, schedule: Q01DX005 (ip), vehicle: distilled water + Tween-80); 95 % of control (dose: 200.0 mg/kg/injection, schedule: Q01DX005 (ip), vehicle: distilled water + Tween-80).

For the molecule `COc1cc(/C=N/Nc2ccc([N+](=O)[O-])cc2)cc(OC)c1OC`, the T/C is 97 % of control under setting [1]; 94 % of control under setting [2]; 98 % of control (dose: 400.0 mg/kg/injection, schedule: Q01DX009 (ip), vehicle: saline with Tween-80).

On to `C(=C(\C[P+](c1ccccc1)(c1ccccc1)c1ccccc1)c1ccccc1)/c1ccccc1`, for which the T/C is 104 % of control (dose: 1.25 mg/kg/injection, schedule: Q01DX009 (ip), vehicle: saline with Tween-80); 102 % of control (dose: 2.5 mg/kg/injection, schedule: Q01DX009 (ip), vehicle: saline with Tween-80); 97 % of control (dose: 5.0 mg/kg/injection, schedule: Q01DX009 (ip), vehicle: saline with Tween-80).

For `COC(=O)c1cc([N+](=O)[O-])cc([N+](=O)[O-])c1Sc1ncnc2nc[nH]c12`, the T/C is 100 % of control (dose: 0.63 mg/kg/injection, schedule: Q01DX005 (ip), vehicle: other); 100 % of control (dose: 1.25 mg/kg/injection, schedule: Q01DX005 (ip), vehicle: other); 107 % of control (dose: 2.5 mg/kg/injection, schedule: Q01DX005 (ip), vehicle: other); 112 % of control (dose: 5.0 mg/kg/injection, schedule: Q01DX005 (ip), vehicle: other); 112 % of control (dose: 10.0 mg/kg/injection, schedule: Q01DX005 (ip), vehicle: other); 95 % of control (dose: 40.0 mg/kg/injection, schedule: Q01DX005 (ip), vehicle: other).

For `CC(=O)Nc1cccc(C)n1`, the T/C by setting is: (dose: 75.0 mg/kg/injection, schedule: Q01DX001 (ip), vehicle: saline) 98 % of control; (dose: 150.0 mg/kg/injection, schedule: Q01DX001 (ip), vehicle: saline) 98 % of control.

As for `CN(C)OC(=O)Nc1ccc([N+](=O)[O-])cc1`, the T/C was 97 % of control under setting [3], 112 % of control under setting [4] and 108 % of control under setting [5].

On to `O=C(NCCCl)Nc1ncn[nH]1`, for which the T/C under setting [6] was 95 % of control, the T/C under setting [7] was 98 % of control and the T/C under setting [8] is 96 % of control.

In the case of `O=S(=O)(F)c1ccc2nc(-c3ccccc3)cc(Cl)c2c1`, the T/C is 111 % of control under setting [9]; 108 % of control under setting [10]; 109 % of control (dose: 400.0 mg/kg/injection, schedule: Q01DX009 (ip), vehicle: saline).

Consider `CCCC/C=C/COCC`, for which the T/C is 97 % of control (dose: 50.0 mg/kg/injection, schedule: Q01DX009 (ip), vehicle: saline with Tween-80); 94 % of control under setting [1]; 97 % of control under setting [2].

`Nc1ccc2ccc(O)cc2c1`: the T/C by setting is: under setting [9], 97 % of control; under setting [11], 103 % of control; (dose: 200.0 mg/kg/injection, schedule: Q04DX003 (ip), vehicle: saline) 108 % of control.

With `O=C(Nc1nc2ccccc2s1)c1cc2ccccc2cc1O`, the T/C under setting [6] is 87 % of control, the T/C under setting [7] is 98 % of control and the T/C under setting [8] is 91 % of control.

Take `O=C(O)c1cc([N+](=O)[O-])cc([N+](=O)[O-])c1` (tested in a mixture with another compound): the T/C reads like this: under setting [3], 105 % of control and 114 % of control; under setting [4], 101 % of control and 105 % of control; under setting [5], 94 % of control.

For the molecule `CCOC(=O)C(Cc1ccccc1Cl)(NC(C)=O)C(=O)OCC`, the T/C runs as follows: under setting [6], 100 % of control; under setting [7], 102 % of control; under setting [8], 91 % of control.

With `S=C1NC(c2ccccc2)Nc2ccccc21` (stereo not drawn), the T/C runs as follows: under setting [6], 91 % of control; under setting [7], 95 % of control.

On to `S=c1nc(-c2ccccc2)c(-c2ccccc2)n[nH]1`, for which the T/C reads like this: (dose: 75.0 mg/kg/injection, schedule: Q01DX009 (ip), vehicle: saline) 93 % of control; (dose: 150.0 mg/kg/injection, schedule: Q01DX009 (ip), vehicle: saline) 98 % of control.

For the molecule `O=C(OCC(OC(=O)c1ccccc1)C1OC(c2ccccc2)OC1C(COC(=O)c1ccccc1)OC(=O)c1ccccc1)c1ccccc1` (stereo not drawn), the T/C is, setting by setting: under setting [6], 97 % of control; under setting [7], 101 % of control; under setting [8], 97 % of control.

With `Cc1cn([C@@H]2C[C@H](CO)[C@@H](O)C2)c(=O)[nH]c1=O`, the T/C reads like this: (dose: 133.0 mg/kg/injection, schedule: Q01DX009 (ip), vehicle: saline) 118 % of control; under setting [10], 121 % of control; (dose: 450.0 mg/kg/injection, schedule: Q01DX009 (ip), vehicle: saline) 106 % of control.

Regarding `CCCOP(=O)(N1CC1(C)C)N1CC1(C)C` (stereo not drawn), the T/C is, setting by setting: (dose: 6.3 mg/kg/injection, schedule: Q04DX003 (ip), vehicle: saline) 101 % of control; under setting [12], 101 % of control; (dose: 25.0 mg/kg/injection, schedule: Q01DX009 (ip), vehicle: saline) 119 % of control; under setting [13], 124 % of control; (dose: 50.0 mg/kg/injection, schedule: Q01DX009 (ip), vehicle: saline) 188 % of control; under setting [9], 156 % of control and 186 % of control. The T/C under setting [11] is 124 % of control.

For `C[Si](C)(C)OC1(C#N)C=CC(=O)C=C1`, the T/C is 103 % of control (dose: 1.56 mg/kg/injection, schedule: Q01DX001 (ip), vehicle: saline with Tween-80); 100 % of control (dose: 3.13 mg/kg/injection, schedule: Q01DX001 (ip), vehicle: saline with Tween-80); 92 % of control and 95 % of control (dose: 6.25 mg/kg/injection, schedule: Q01DX001 (ip), vehicle: saline with Tween-80).

`CN(Cc1cnc2nc(N)nc(N)c2n1)c1ccc(C(=O)NC(CCC(=O)NC(CCC(=O)NC(CCC(=O)O)C(=O)O)C(=O)O)C(=O)O)cc1` (stereo not drawn): the T/C is 98 % of control (dose: 0.5 mg/kg/injection, schedule: Q01DX005 (ip), vehicle: sodium bicarbonate); 111 % of control and 112 % of control (dose: 1.0 mg/kg/injection, schedule: Q01DX005 (ip), vehicle: sodium bicarbonate); 114 % of control and 121 % of control (dose: 2.0 mg/kg/injection, schedule: Q01DX005 (ip), vehicle: sodium bicarbonate); 152 % of control and 153 % of control (dose: 8.0 mg/kg/injection, schedule: Q01DX005 (ip), vehicle: sodium bicarbonate); 158 % of control (dose: 16.0 mg/kg/injection, schedule: Q01DX005 (ip), vehicle: sodium bicarbonate).

As to `CCCCCCCCCSc1nc2ccccc2s1`, the T/C under setting [3] is 87 % of control, the T/C under setting [4] was 97 % of control and the T/C under setting [5] is 93 % of control.

With `O=C([O-])[O-].O=S(=O)(O)O.[Co+3].[NH2-].[NH2-].[NH2-].[NH2-]`, the T/C was 100 % of control under setting [3] and 107 % of control under setting [5].

Take `O=C(O)C(O)C(O)C(O)C(O)CO.O=C(O)C(O)C(O)C(O)C(O)CO.[NH-]C1CCCCC1[NH-].[Pt+2]` (stereo not drawn): the T/C (dose: 3.13 mg/kg/injection, schedule: Q04DX003 (ip), vehicle: other) is 123 % of control; the T/C (dose: 6.25 mg/kg/injection, schedule: Q04DX003 (ip), vehicle: saline) was 119 % of control; the T/C under setting [12] is 166 % of control; the T/C (dose: 25.0 mg/kg/injection, schedule: Q04DX003 (ip), vehicle: other) is 162 % of control; the T/C under setting [13] was 304 % of control; the T/C (dose: 50.0 mg/kg/injection, schedule: Q04DX003 (ip), vehicle: other) is 231 % of control. Besides, the T/C is, setting by setting: (dose: 50.0 mg/kg/injection, schedule: Q04DX003 (ip), vehicle: saline) 281 % of control and 225 % of control; under setting [11], 306 % of control and 280 % of control.

As for `O=C(C[n+]1ccc2ccccc2c1)c1ccccc1`, the T/C was 98 % of control (dose: 25.0 mg/kg/injection, schedule: Q04DX003 (ip), vehicle: saline sonified) and 93 % of control (dose: 50.0 mg/kg/injection, schedule: Q04DX003 (ip), vehicle: saline sonified).
